Results reported in patent US7445790B2, “External preparations for skin” (Shiseido Company, Ltd., priority 2002, dated 2008).

Tests used:
[1] = IOB value of the oil component; format: physicochemical; conditions: obtained oil component
[2] = Solubility of a slightly soluble triazine-type ultraviolet absorbent in oil components at 0° C.; format: physicochemical; conditions: concentration (mass percentage) in a saturated solution at 0° C. of 2,4-bis{[4-(2-ethylhexyloxy)-2-hydroxy]phenyl}-6-(4-methoxyphenyl)1,3,5-triazine in the oil component
Excerpt: (§1) For the slightly soluble ultraviolet absorbent, a triazine-type ultraviolet absorbent 2,4-bis{[4-(2-ethylhexyloxy)-2-hydroxy]phenyl}-6-(4-methoxyphenyl)1,3,5-triazine was used.
This oil component is a mixture of alkyl benzoates having 12-15 carbon atoms.
as §1

Row | IOB value [1] | Solubility ([2]; Table 1-4) [%] | Solubility ([2]; Table 2-1) [%] | SMILES
1 | 0.26 | – | – | CCCCC(CC)COC(=O)c1ccccc1 (centres unmarked) [2-ethylhexyl benzoate]
2 | 0.26 | – | – | CC(CCOC(=O)c1ccccc1)CC(C)(C)C (centres unmarked) [3,5,5-trimethylhexyl benzoate]
3 | 0.23 | – | – | CC(C)CCCC(C)CCOC(=O)c1ccccc1 (centres unmarked) [3,7-dimethyloctyl benzoate]
4 | – | 0 | 0 | C[Si]1(C)O[Si](C)(C)O[Si](C)(C)O[Si](C)(C)O[Si](C)(C)O1 [Decamethyl cyclopentane siloxane]
